Consider one compound from patent US8623919B2, “Method of synthesizing S-allyl-cysteine analogues and their therapeutic application in treating myocardial infarction” (Fudan University, priority 2007, dated 2014).

Assay [1] relates to rats following MI injury. The assay is described as follows: Serum LDH in rats (sham or MI). The conditions noted are these: Sham rats; 50 mg/Kg/day intraperitoneal. The assay is classed as in vivo, SD rats. As for the experimental part:
(§1) Animals were assigned and prepared the same as in Example 7, and dosages of SPRC and SAC were used the same in this example as in Example 7.
(§2) Serum CK levels were detected with diagnostic kit (NJBI, China) according to the instructions. LDH were determined calorimetrically with a spectrophotometer. Lipid peroxidation was measured in terms of MDA content using the thiobarbituric acid (TBA) assay. […] With regard to lipid peroxidation, the levels of MDA in MI groups increased at 48 h after myocardial infarction. […] (FIG. 14)

Another assay has as its system Bax mRNA. Briefly: RT-PCR of Bax mRNA in left ventricle. The assay is classed as in vivo, SD rats. To be noted: MI rats, 50 mg/Kg/day, p<0.05.
Source text: as §1
(§3) To further verify the effects of SPRC and SAC, the expressions of Bcl-2, Bax and CSE mRNA were accessed by RT-PCR (FIG. 17). An isoform of the CSE gene was detected (GenBank; access no. AY641456). The relative amounts of CSE mRNA in Left ventricular subjected to MI were increase 3.3-fold and 1.5-fold following SPRC and SAC exposure as compared to the MI group.

In assay [2] the test system is H9c2 cells. Briefly: Catalase activity in H2O2 injured H9c2 cells. To be noted: SPRC treatments. The assay is classed as cell-based. An excerpt: Similar experiments are done on cultured H9c2 cardiac muscle cells groups with the same experiment condition and different dosages of SPRC treatments. The results of the experiments confirm that endogenous H2S level in H2O2 injured H9c2 cells is elevated by SPRC treatments. […] It is also observed that the apoptosis of hypoxic myocardial cells is decreased, the survival rate of the in H2O2 injured H9c2 cells is increased and the LDH releasing from the in H2O2 injured H9c2 cells are reduced by three dosages of SPRC treatment.

Assay [3] deals with rats following MI injury. The assay is described as follows: MDA content (TBA assay) in rats (sham or MI). The assay is classed as in vivo, SD rats. The conditions noted are these: Sham rats; 50 mg/Kg/day intraperitoneal. Here is the method: as §1, §2
For another assay, the system named is myocardial cells. The assay is described as follows: Lipid peroxidation (MDA, TBA) in hypoxia/reoxygenation injured myocardial cells. The assay is classed as cell-based, Sprague-Dawley (SD) rat. To be noted: 10^−5 mol/L. Here is the method: Myocardial cell samples were obtained from the same procedure of Example 1, the experiment groups were divided and hypoxia/reoxygenation experiments were performed on Control group, Vehicle group, SAC and analogue groups, same as the experiments in Example 1 with the same dosages and same conditions. Myocardial cells were obtained from each sample (10^6 myocardial cells/sample) from the Control group, Vehicle group, SAC and analogue groups. The cells were lysed under sterilized condition, and lipid peroxidation experiments on the samples were performed. Since oxygen free radical attacks poly unsaturated fatty acid in biomembrane, inducing lipid peroxidation and producing MDA (malondialdehyde). MDA can react with thiobarbituric acid (TBA), forms red product, which can be detected in spectrophotometer at 532 nm. […] The inhibition effect could be reversed by PAG.

The subject of another assay is Bax. The assay is described as follows: Western blot of Bax protein in left ventricle. The conditions noted are these: MI rats, 50 mg/Kg/day, p<0.01. The assay is classed as in vivo, SD rats.
Source text: as §1

For a further assay, the system named is CSE mRNA. The assay is described as follows: RT-PCR of CSE mRNA in left ventricle. It is filed as in vivo, SD rats. To be noted: MI rats, 50 mg/Kg/day.
Source text: as §1, §3

The next assay has as its system Bcl-2. The assay is described as follows: Western blot of Bcl-2 protein in left ventricle. The conditions noted are these: MI rats, 50 mg/Kg/day, p<0.01. It is filed as in vivo, SD rats.
Source text: as §1

Assay [4] relates to rats following MI injury. The assay is described as follows: Plasma H2S levels in rats (sham or MI). The assay is classed as in vivo, SD rats. To be noted: 50 mg/Kg/day intraperitoneal. Here is the method:
as §1
(§4) The plasma levels of H2S in each treatment group were determined since CSE mediates the endogenous production of H2S in mammals. Plasma H2S concentrations in MI group rats at 48 h after MI induction were 34.7±5.6 μM (n=8). […] Left ventricular CSE activity was analyzed in the tissue homogenates from each treatment group (n=6). CSE activity was 1.58±0.15 μmol/g protein/hr in left the ventricular tissues in MI group and 2.19±0.32 μmol/g protein/hr in the MI+SAC treated rats.

Assay [5] deals with rats following MI injury. The assay is described as follows: SOD activity in plasma of rats (sham or MI). It is filed as in vivo, SD rats. To be noted: 50 mg/Kg/day intraperitoneal. As for the experimental part: as §1, §2
Assay [6] has as its system rats following MI injury. Briefly: Serum CK in rats (sham or MI). The conditions noted are these: Sham rats; 50 mg/Kg/day intraperitoneal. It is filed as in vivo, SD rats. Here is the method: as §1, §2
Assay [7] has as its target T1, CSE (Rattus norvegicus, UniProt P18757).
T1 construct: from tissue; host or cells: rat left ventricle (homogenate), myocardial infarction model
The assay is described as follows: Left ventricular CSE activity in tissue homogenates of rats. It is filed as in vivo, SD rats. To be noted: 50 mg/Kg/day; for CSE activity: left ventricle. Here is the method: as §1, §4
SPRC administered rats had the highest CSE activity of 2.58±0.07 μmol/g protein/hr (p<0.01) (FIG. 15B). This observation correlated with the observed increases in H2S concentrations in the same treatment groups.

For assay [8], the system named is H9c2 cells. The assay is described as follows: Mn-SOD activity of H9c2 cells injured by H2O2. It is filed as cell-based. To be noted: H2O2 injured H9c2; SPRC Low Dose 10^−7 mol/L. Here is the method:
H9c2 cells were cultured same as Example 12, the cells were then divided into the groups same as Example 12.
The cells were lysed under sterilized condition, and lipid peroxidation experiments on the samples were performed. […] The effect of SPRC could be blocked by PAG, indicating SPRC mediates its effect on H9c2 cell by way of endogenous H2S.

Assay [9] concerns CSE. Briefly: Western blot of CSE protein in left ventricle. The assay is classed as in vivo, SD rats. To be noted: MI rats, 50 mg/Kg/day, p<0.01.
Source text: as §1

T1 sequence (P18757 whole entry): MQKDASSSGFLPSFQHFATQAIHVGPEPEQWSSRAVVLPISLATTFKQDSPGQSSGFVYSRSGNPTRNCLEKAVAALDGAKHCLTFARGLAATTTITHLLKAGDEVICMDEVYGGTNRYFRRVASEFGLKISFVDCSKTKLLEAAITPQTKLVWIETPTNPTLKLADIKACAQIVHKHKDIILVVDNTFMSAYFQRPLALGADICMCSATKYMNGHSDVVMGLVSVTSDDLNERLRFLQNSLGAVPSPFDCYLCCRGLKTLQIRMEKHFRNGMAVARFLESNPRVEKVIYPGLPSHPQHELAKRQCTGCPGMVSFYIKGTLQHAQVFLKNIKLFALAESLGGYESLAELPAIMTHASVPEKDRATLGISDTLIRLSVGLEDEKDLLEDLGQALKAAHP

In turn, `C#CCSC[C@H](N)C(=O)O` [SPRC, S-propargyl-cysteine] displayed an LDH in the assay on rats following MI injury [1] of 2612 ± 189 U/L. Moreover, in the assay on Bax mRNA, the Bax gene expression entry is reported as “down regulated”. The catalase activity result with H9c2 cells [2] was “elevated”. This compound returned an MDA with rats following MI injury [3] of 3.79 ± 0.40 nmol/mL. In addition, the “lipid peroxidation (MDA)” value with myocardial cells is “inhibited”. For the same compound, in the assay on Bax, the Bax protein levels result is listed as “down-regulated”. In the assay on CSE mRNA, the “relative amounts of CSE mRNA, increase as compared to the MI group” value was 3.3 fold. In addition, the Bcl-2 protein expression entry in the assay with Bcl-2 is given as “up-regulated”. The “H2S concentration in plasma” value with rats following MI injury [4] (MI rats, 48 h after MI induction, 50 mg/kg/day) is 91.6 ± 7.6 µM; in the assay with rats following MI injury [4] (Sham rats), 67.2 ± 6.4 µM. The SOD with rats following MI injury [5] (MI rats, 48 h after MI) is reported as 113.8 ± 1.5 U/ml; in the assay on rats following MI injury [5] (Sham rats), 161.2 ± 3.8 U/ml. In the assay with rats following MI injury [6], the CK was 0.251 ± 0.032 U/ml. For the same compound, the CSE activity amounted to 2.58 ± 0.07 μM/mgprot on CSE [7] (MI rats) and 2.41 ± 0.12 μM/mgprot on CSE [7] (Sham rats). Also, at CSE [7] (MI rats, left ventricular tissue homogenates, MI group 1.58±0.15), the “Left ventricular CSE activity” value is on record as 2.58±0.07 μmol/g protein/hr. Also, the “Mn-SOD Activity” value in the assay with H9c2 cells [8] came out at 8.75 ± 0.68 U/mgprot. Besides, the CSE protein expression entry with CSE [9] was “up-regulated”.
